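Following 48 hours of exposure in 96-well plates, responses at five concentrations were used to interpolate endpoints linearly. Here, GI50 denotes the concentration required for 50% inhibition of growth.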 Active and inactive are the calls of the source. Cut-off read from the data, not from the text of the source: active = GI50 up to about 1.1 µM and inactive = higher.
Tests used:
Test in all cases: NCI anticancer screen, dose series, 48 h
[1] = tested on: KM12
[2] = tested on: NCI-H460
[3] = tested on: Hs-578T
[4] = tested on: 786-0
[5] = tested on: SF-539
[6] = tested on: OVCAR-4
[7] = tested on: MCF7
[8] = tested on: SNB-75
[9] = tested on: SK-MEL-5
[10] = tested on: HOP-92
[11] = tested on: SF-268
[12] = tested on: OVCAR-5
[13] = tested on: MDA-N
[14] = tested on: TK-10
[15] = tested on: A498
[16] = tested on: RPMI-8226
[17] = tested on: K562
[18] = tested on: MOLT-4
[19] = tested on: IGROV-1
[20] = tested on: HOP-62

Compound	GI50 [1]	GI50 [2]	GI50 [3]	GI50 [4]	GI50 [5]	GI50 [6]	GI50 [7]	GI50 [8]	GI50 [9]	GI50 [10]	GI50 [11]	GI50 [12]	GI50 [13]	GI50 [14]	GI50 [15]	GI50 [16]	GI50 [17]	GI50 [18]	GI50 [19]	GI50 [20]
COC(=O)CC(=O)Nc1sccc1S(=O)(=O)c1ccccc1	94.8 µM (inactive)	> 100 µM (inactive)	> 100 µM (inactive)	50.5 µM (inactive)	35.1 µM (inactive)	54.3 µM (inactive)	65.8 µM (inactive)	> 100 µM (inactive)	> 100 µM (inactive)	> 100 µM (inactive)	> 100 µM (inactive)	> 100 µM (inactive)	35.2 µM (inactive)	65.9 µM (inactive)	> 100 µM (inactive)	> 100 µM (inactive)	80.7 µM (inactive)	> 100 µM (inactive)	> 100 µM (inactive)	
Cc1cc(C)c2nc3c(c(C(O)C4CCCCN4)c2c1)CC/C3=C\c1ccc(Cl)cc1 (stereo not given)	64.3 µM (inactive)	32.6 µM (inactive)	> 100 µM (inactive)	67.8 µM (inactive)	> 100 µM (inactive)	58.9 µM (inactive)	46.6 µM (inactive)	54 µM (inactive)	28.9 µM (inactive)	> 100 µM (inactive)	> 100 µM (inactive)	41.1 µM (inactive)	50.4 µM (inactive)	> 100 µM (inactive)	> 100 µM (inactive)	40.7 µM (inactive)	38 µM (inactive)	26.7 µM (inactive)	84.1 µM (inactive)	75.9 µM (inactive)
NC1=NC(NCC2(CO)CCC2)=CC(OCC2(CO)CCC2)N1 (stereo not given)	> 100 µM (inactive)	> 100 µM (inactive)	> 100 µM (inactive)	> 100 µM (inactive)		> 100 µM (inactive)	> 100 µM (inactive)	> 100 µM (inactive)	79.3 µM (inactive)	> 100 µM (inactive)	> 100 µM (inactive)	> 100 µM (inactive)	> 100 µM (inactive)		> 100 µM (inactive)	> 100 µM (inactive)	44.8 µM (inactive)	65.9 µM (inactive)	> 100 µM (inactive)	> 100 µM (inactive)
CO/N=C(\C)c1ccc(Nc2c3ccccc3nc3occc23)cc1	0.201 µM (active)	0.426 µM (active)	0.482 µM (active)	0.74 µM (active)	0.383 µM (active)	0.902 µM (active)	0.168 µM (active)	0.41 µM (active)	0.323 µM (active)	12.9 µM (inactive)	0.718 µM (active)	4.08 µM (inactive)	0.0855 µM (active)	1.21 µM (inactive)	0.773 µM (active)	0.429 µM (active)	0.195 µM (active)	0.366 µM (active)	0.233 µM (active)	1.27 µM (inactive)
NC(CSC1(c2ccc(Cl)cc2)c2ccccc2-c2ccccc21)C(=O)O (stereo not given)	24.1 µM (inactive)	18.1 µM (inactive)	18.2 µM (inactive)	20.8 µM (inactive)	20.9 µM (inactive)	22.2 µM (inactive)	17.6 µM (inactive)	22.2 µM (inactive)	16.2 µM (inactive)	20.7 µM (inactive)	20.5 µM (inactive)	30.3 µM (inactive)	> 100 µM (inactive)	24.8 µM (inactive)	17.1 µM (inactive)	12.3 µM (inactive)	26.2 µM (inactive)	20 µM (inactive)	13.5 µM (inactive)	18.7 µM (inactive)
CN(NC(=O)c1cccs1)C1=NCCN1	> 100 µM (inactive)	> 100 µM (inactive)	> 100 µM (inactive)	> 100 µM (inactive)	> 100 µM (inactive)	> 100 µM (inactive)	> 100 µM (inactive)	> 100 µM (inactive)	> 100 µM (inactive)	> 100 µM (inactive)	> 100 µM (inactive)	> 100 µM (inactive)	> 100 µM (inactive)	23.8 µM (inactive)	> 100 µM (inactive)	> 100 µM (inactive)	> 100 µM (inactive)	> 100 µM (inactive)	> 100 µM (inactive)	> 100 µM (inactive)
CCOc1ccc(/N=N/C2C(=O)N(C(=O)CC(=O)Nc3ccc(C)cc3)N=C2C)cc1 (stereo not given)	8.47 µM (inactive)	14.8 µM (inactive)	5.73 µM (inactive)	16 µM (inactive)	14.8 µM (inactive)	25.3 µM (inactive)	40.6 µM (inactive)	8.02 µM (inactive)	72.3 µM (inactive)	16.7 µM (inactive)	22.3 µM (inactive)	> 100 µM (inactive)	2.7 µM (inactive)	24.8 µM (inactive)	13.2 µM (inactive)			14.7 µM (inactive)	15.9 µM (inactive)	16 µM (inactive)
